Reference: PMC10481538, “Bioanalytical method validation and application to a phase 1, double-blind, randomized pharmacokinetic trial of a standardized Centella asiatica (L.) Urban water extract product in healthy older adults” (Frontiers in Pharmacology, 2023)
Values joined by “and” are separate entries in the source; they are usually repeats but may differ in a detail not shown here. Equal values may be shown once. “Also recorded” adds a separate entry of the source. Read-outs that look alike come from different tables or passages of the source.

Experiments:
[1] = clinical; conditions: for AUC(0-t): AUC(0-12)
Method: (§1) To each sample of participant plasma or urine, A. aerogenes sulfatase (2.5 µL; 10–20 units/mL), and E. coli glucuronidase (2.5 µL; ∼5,000–50,000 units/mL) were used to release the analytes from their sulfate and β-D-glucuronic acid esters (Phase II metabolites). For calibration and validation samples, aqueous glycerol (5 µL) was added to mimic the enzymatic hydrolysis. For all analyses, 1% ascorbic acid (10 µL) was added prior to sample work up to limit oxidation. Samples were incubated (37°C) for 20 min and placed on ice to halt enzymatic activity. […] The supernatant was filtered (0.22 µm spinfilter) at 10,000 g for 5 min at 4°C and used for analysis. To optimize peak shape during analysis, the concentration of organic solvent (sample filtrate) was adjusted to a 60:40 ratio with HPLC grade water for TT analysis and a 90:10 ratio with 1% aqueous formic acid for CQA analysis.
(§2) HPLC-MS/MS was performed at the Oregon Health & Science University’s (OHSU) Bioanalytical Shared Resource/Pharmacokinetics Core (Portland, OR, United States). […] Chromatographic separation was achieved using a Poroshell 120 EC18 column (3 mm id × 50 mm; 2.7 µ) and a Poroshell ultra high-performance liquid chromatography (UHPLC) guard column (3.0 mm i.d. Å∼ 5 mm, 2.7 μ) (Agilent, Santa Clara, CA, United States). The injection volume was 20 μL and flow rate was 0.42 mL/min. Gradient elution was performed using a mobile phase of solvent A (water containing 10 mM ammonium acetate and 0.02% ammonium hydroxide; pH 8.5) and solvent B (methanol). […] Chromatographic separation was achieved using a Zorbax Eclipse plus C8 Rapid resolution (4.6 i.d. Å∼ 150 mm, 3.5 μ) column with a Zorbax Eclipse plus C8 Rapid resolution (4.6 i.d. Å∼ 12.5 mm, 5 μ) guard column (Agilent, Santa Clara, CA, United States). The injection volume was 5 μL and flow rate of 0.8 mL/min. Gradient elution was performed using a mobile phase of solvent A (water containing 0.05% v/v acetic acid) and solvent B (acetonitrile with 0.05% v/v acetic acid).
(§3) Briefly, two in-person study visits occurred a minimum of two weeks and a maximum of four weeks apart in which participants orally consumed 2 or 4 g of CAP (in a randomized order) on an empty stomach. Total study duration was eight weeks including follow-up adverse event monitoring. All study procedures were identical for each visit except for the CAP dose administered. Randomization (to prevent tolerance effects) was performed using an arm equivalence design by the OHSU Research Pharmacy. All study personnel were blind to randomization allocation until all data analysis had been finalized. […] Participants fasted for 10 h, excluding water, prior to each study visit and for 2 h after consuming the study intervention to standardize gastrointestinal transit time and minimize food effects. During study visits, participants were provided low-phytochemical snacks and meals by the OCTRI CTRC’s Bionutrition Unit devoid of the foods outlined in Section 2.5. At each study visit, a peripheral intravenous catheter was placed in the arm to allow for repeat blood sampling. Prior to CAP intake, 20 mL of baseline blood and 50 mL of baseline urine were collected. […] Plasma aliquots (2 mL) were frozen and stored at -80°C until analysis. […] A 50 mL aliquot was retained and frozen at −80°C for renal excretion analysis.
(§4) Sample preparation and analysis: Plasma and urine sample preparation and analyte quantification by LC-MS/MS were performed in duplicate for each time point and visit (Sections 2.2–2.4). Due to the possibility of residual interference from the participant’s diet and unique, individual matrix effects, calibration curves were generated for each participant using their baseline plasma collected at the corresponding visit.

[2] = older adults on cholinesterase inhibitors, ref Wright et al., 2022, cited from earlier work
[3] = Method: as §1, §2, §3, §4
[4] = cited from earlier work; for Cmax: Songvut et al., 2021
[5] = human, 2 weeks
[6] = cited from earlier work
[7] = Analyte storage stability in human plasma
[8] = Analyte storage stability in human urine
[9] = condition 2 three freeze-thaw cycles, low concentration
[10] = condition 3 4°C for 24 h, medium concentration
[11] = condition 1 long-term storage at −80°C, low concentration
[12] = condition 2 freeze-thaw, medium concentration
[13] = condition 3 overnight storage at 4°C, low concentration
[14] = both, human, plasma, po, 2 g, single oral 2 g CAW (CAP), n = 7, mean (SEM)
[15] = both, human, plasma, po, 2 g, Cmax, single oral 2 g CAW (CAP), healthy older adults, n = 7, plasma, mean (SEM), ^ = below LLoQ
[16] = both, human, plasma, po, 2 g, T1/2, single oral 2 g CAW (CAP), n = 7, mean (SEM)
[17] = both, human, plasma, po, 2 g, Tmax, single oral 2 g CAW (CAP), n = 7, mean (SEM)
[18] = both, human, plasma, po, 4 g, single oral 4 g CAW (CAP), n = 7, mean (SEM)
[19] = both, human, plasma, po, 4 g, Cmax, single oral 4 g CAW (CAP), healthy older adults, n = 7, plasma, mean (SEM), ^ = below LLoQ
[20] = both, human, plasma, po, 4 g, T1/2, single oral 4 g CAW (CAP), n = 7, mean (SEM)
[21] = both, human, plasma, po, 4 g, Tmax, single oral 4 g CAW (CAP), n = 7, mean (SEM)
[22] = single oral 2 g CAW (CAP), n = 7, mean (SEM)
[23] = single oral 4 g CAW (CAP), n = 7, mean (SEM)
[24] = condition 1 long-term storage at -80°C, low concentration
[25] = condition 2 three freeze-thaw cycles, medium concentration
[26] = condition 1 long-term storage at −80°C, medium concentration
[27] = condition 2 freeze-thaw, low concentration
[28] = encapsulated ECa 233, healthy adults, ref Songvut et al., 2019
[29] = condition 2 freeze-thaw, high concentration

| Compound | T1/2 ([1]; both, human, in vivo, po) | Tmax ([1]; both, human, in vivo, po) | half-life ([1]; both, human, in vivo, po, T1/2) | Tmax ([1]; both, human, in vivo, po, Tmax) | Stability, percent of nominal concentration [7, 9] | Stability, percent of nominal concentration [8, 11] | Stability, percent of nominal concentration [8, 12] | AUC(0-t) [1, 14] | Cmax [1, 15] | half-life [1, 16] | Tmax [1, 17] | AUC(0-t) [1, 18] | Cmax [1, 19] | half-life [1, 20] | Total urinary excretion (12 hr) [3, 22] | Total urinary excretion (12 hr) [3, 23] | Stability, percent of nominal concentration [7, 24] | Stability, percent of nominal concentration [8, 26] | also measured |
| --- | --- | --- | --- | --- | --- | --- | --- | --- | --- | --- | --- | --- | --- | --- | --- | --- | --- | --- | --- |
| C[C@H]1[C@H](C)CC[C@]2(C(=O)O)CC[C@]3(C)C(=CC[C@@H]4[C@@]5(C)C[C@@H](O)[C@H](O)[C@@](C)(CO)[C@@H]5CC[C@]43C)[C@H]12 [AA, asiatic acid] | 4.9 (1.3) hr | 2.8 (0.2) hr | 4.1 h | 2.2 h | – | – | – | – | – | – | – | – | – | – | – | – | – | – | Cmax ([1]; both, human, in vivo, po, Cmax, range over both doses): 174 to 372 ng/mL; Tmax ([1]; both, human, in vivo, po, Tmax, range over both doses): 2.2 to 2.8 h; Cmax ([2]; 2 g CAP): 123 ng/mL; Cmax ([2]; 4 g CAP): 259 ng/mL; Total urinary excretion (12 hr) ([3]; in vivo, po): Not detected; Tmax ([4]; human, in vivo): 1.5 h; Stability, percent of nominal concentration [5]: 111%; Tmax ([6]; in vivo): 4 to 4.5 h |
| O=C(O)/C=C/c1ccc(O)c(O)c1 [CA, caffeic acid] | 10.3 (3.7) hr | 4.5 (1.6) hr | 8.4 h | 5.3 h | 108% | 211% | 129% | – | – | – | – | – | – | – | – | – | – | – | AUC(0-12) ([1]; both, human, in vivo, po): 2.4 (0.6) ng/mL*hr; AUC(0-t) ([1]; both, human, in vivo, po): 1.8 ng·h/mL; Cmax ([1]; both, human, in vivo, po, Cmax): 0.5 ng/mL; Stability, percent of nominal concentration ([7]; condition 3 4°C for 24 h, low concentration): 63%; Stability, percent of nominal concentration [7, 10]: 75%; Stability, percent of nominal concentration [8, 13]: 224%; Stability, percent of nominal concentration ([8]; condition 3 overnight storage at 4°C, medium concentration): 86% |
| O=C(O)CCc1ccc(O)c(O)c1 [DHCA, Dihydrocaffeic acid] | – | – | – | – | – | 70% | – | 1.7 ng·h/mL | 0.4 ng/mL | 1.8 h | 6.1 h | 1.9 ng·h/mL | 0.5 ng/mL | 1.9 h | 26.8 (10.0) µg | 24.8 (6.1) µg | 75% | – | Tmax [1, 21]: 3.2 h; Stability, percent of nominal concentration ([7]; condition 1 long-term storage at -80°C, medium concentration): 75%; Stability, percent of nominal concentration ([7]; condition 2 three freeze-thaw cycles, high concentration): 75%; Stability, percent of nominal concentration [7, 25]: 51%; Stability, percent of nominal concentration [7, 10]: 23%; Stability, percent of nominal concentration [8, 13]: 106% |
| COc1cc(CCC(=O)O)ccc1O [DHFA, Dihydroferulic acid] | 6.6 (3.8) hr | 5.7 (1.5) hr | 7.1 h | 5.9 h | 97% | 79% | 84% | – | – | – | – | – | – | – | – | – | 81% | 67% | AUC(0-12) ([1]; both, human, in vivo, po): 41.0 (12.7) ng/mL*hr; Cmax ([1]; both, human, in vivo, po): 8.1 (2.9) ng/mL; AUC(0-t) ([1]; both, human, in vivo, po): 35.6 ng·h/mL; Cmax ([1]; both, human, in vivo, po, Cmax): 9.3 ng/mL |
| COc1cc(/C=C/C(=O)O)ccc1O [FA, ferulic acid] | – | – | – | – | – | 81% | – | – | – | – | – | – | – | – | 146.8 (33.5) µg | 137.4 (24.6) µg | 129% | – | Cmax ([1]; single oral 2 g CAW (CAP), healthy older adults, n = 7, plasma, mean (SEM), ^ = below LLoQ): 1.5 (0.3) ng/mL; AUC(0-12) [1, 22]: 11.3 (2.9) ng/mL*hr; T1/2 [1, 22]: 14.1 (3.9) hr; Tmax [1, 22]: 5.9 (1.3) hr; Cmax ([1]; single oral 4 g CAW (CAP), healthy older adults, n = 7, plasma, mean (SEM), ^ = below LLoQ): 1.5 (0.6) ng/mL; AUC(0-12) [1, 23]: 9.9 (2.8) ng/mL*hr; T1/2 [1, 23]: 2.9 (1.3) hr; Tmax [1, 23]: 7.1 (1.2) hr |
| O=C(O)CCc1cccc(O)c1 [HPP, 3-(3-hydroxyphenyl) propionic acid] | – | – | – | – | – | 48% | – | 56.8 ng·h/mL | 5.8 ng/mL | 5 h | 7.4 h | 50.2 ng·h/mL | 10.6 ng/mL | 2.6 h | 223.4 (76.7) µg | 247.9 (73.6) µg | – | 81% | Tmax [1, 21]: 5.7 h; Stability, percent of nominal concentration [8, 27]: 96% |
| COc1ccc(/C=C/C(=O)O)cc1O [IFA, isoferulic acid] | – | – | – | – | – | – | 80% | 5.3 ng·h/mL | 1.5 ng/mL | 7 h | 2.4 h | 7.4 ng·h/mL | 1.5 ng/mL | 3.5 h | 65.9 (23.1) µg | – | – | – | Stability, percent of nominal concentration [7, 25]: 117%; Stability, percent of nominal concentration ([8]; condition 1 long-term storage at −80°C, high concentration): 84%; Stability, percent of nominal concentration [8, 27]: less than 115% |
| C[C@H]1[C@H](C)CC[C@]2(C(=O)O)CC[C@]3(C)C(=CC[C@@H]4[C@@]5(C)C[C@@H](O)[C@H](O)[C@@](C)(CO)[C@@H]5[C@H](O)C[C@]43C)[C@H]12 [MA, madecassic acid] | – | 2.2 to 2.8 h | – | – | 100% | – | – | – | – | – | – | – | – | – | – | – | – | – | Cmax ([1]; both, human, in vivo, po): 107 to 197 ng/mL; Cmax ([1]; both, human, in vivo, po, 2 g): 210 nM and 107 ng/mL; Tmax ([1]; both, human, in vivo, po, 2 g): 2.4 h; half-life ([1]; both, human, in vivo, po, 2 g): 9.2 h; Cmax ([1]; both, human, in vivo, po, 4 g): 390 nM and 197 ng/mL; Tmax ([1]; both, human, in vivo, po, 4 g): 2.7 h; half-life ([1]; both, human, in vivo, po, 4 g): 6.7 h; Cmax ([2]; 2 g CAP): 38 ng/mL; Cmax ([2]; 4 g CAP): 63 ng/mL; Cmax ([4]; ECa 233 250 mg, ref Songvut et al., 2019): 40 ng/mL; Cmax ([4]; ECa 233 500 mg, ref Songvut et al., 2019): 52 ng/mL; Tmax [4, 28]: 1.5 h; Cmax ([4]; read-out: Cmax (molar), ECa 233 250 mg, ref Songvut et al., 2019): 80 nM; Cmax ([4]; read-out: Cmax (molar), ECa 233 500 mg, ref Songvut et al., 2019): 100 nM; Stability, percent of nominal concentration [8, 29]: 80%; Tmax ([6]; capsular form, ref Grimaldi et al., 1990, Leng et al., 2013, Wright et al., 2022): 4 to 4.5 h |
| madecassoside [MS] | – | – | – | – | – | 57% | 78% | – | – | – | – | – | – | – | Not detected | Not detected | – | 84% | Detection in plasma ([1]; after 2 or 4 g CAP, oral): not detected; also recorded: below the LoD; Tmax [4, 28]: 1 to 2 h; Stability, percent of nominal concentration [8, 29]: 82% |
